# Key:
# Assay type in all cases: cell-based
# HIF-1 = experiment: pTK-HRE3-luc reporter assay, 1,10-phenanthroline-induced HIF-1 activation in T47D cells; conditions: Homo sapiens, read-out: inhibition of HIF-1 activation by 1,10-phenanthroline, 100 nM
# From the text: Iron chelators and transition metals (such as cobalt and nickel) can activate HIF-1 and have been used as chemical hypoxia mimetics. […] The expression of the HIF-1α subunit quantitatively determines HIF-1 biological activity (activation of transcription).
# HCT-15 = experiment: NCI in vitro cell line screen (SRB), Colon Cancer HCT-15
# Protocol: (§1) For exemplary purposes, an embodiment of the present invention was tested for activity with respect to certain cancer cell lines. The following Tables show results from in vitro 60-cell line antitumor testing from the US National Cancer Institute Developmental Therapeutics Program (NCI-DTP) on compound 2. The testing was in connection with the NCI's In Vitro Cell Line Screening Project (IVCLSP). Detailed information regarding the experiments and their interpretation is available from the NCI.
# NCI-H322M = experiment: NCI in vitro cell line screen (SRB), Non-Small Cell Lung Cancer NCI-H322M
# Protocol: as §1
# NCI/ADR-RES = experiment: NCI in vitro cell line screen (SRB), Breast Cancer NCI/ADR-RES
# Protocol: as §1
# (§2) Antitumor agents with tumor-specific selectivity are highly desired, in order to reduce the incidence of non-selective cytotoxicity to patients. […] This is of special importance since this NCI/ADR-RES cell line is resistant to many currently used antitumor agents such as adriamycin, taxol, and others.
# tumor cell lines = experiment: NCI in vitro 60-cell line antitumor testing, GI50 pattern; conditions: GI50 60-cell line pattern
# Protocol: as §1
# Table 2 depicts the GI50 mean bar graph for tumor cell lines, grouped into various categories (such as colon, breast, etc.) The data are arranged to display the relative response selectivity of each cell line relative to one other. This form of data display is used to examine the relative tumor specificity of a text compound. The curves represent the response of each tumor cell line when treated with compound 2.
# as §2
# MDA-MB-231/ATCC = experiment: NCI in vitro cell line screen (SRB), Breast Cancer MDA-MB-231/ATCC
# Protocol: as §1
# HL-60(TB) = experiment: NCI in vitro cell line screen (SRB), Leukemia HL-60(TB)
# Protocol: as §1
# 786-0 = experiment: NCI in vitro cell line screen (SRB), Renal Cancer 786-0
# Protocol: as §1
# SF-539 = experiment: NCI in vitro cell line screen (SRB), CNS Cancer SF-539
# Protocol: as §1
# [1] = Homo sapiens, read-out: LC50 (the source's name)
# [2] = NCI/ADR-RES, Log10 Concentration −4.0 Molar
# [3] = NCI/ADR-RES, Log10 Concentration −5.0 Molar
# [4] = NCI/ADR-RES, Log10 Concentration −6.0 Molar
# [5] = NCI/ADR-RES, Log10 Concentration −7.0 Molar
# [6] = NCI/ADR-RES, Log10 Concentration −8.0 Molar
smiles,measurement,setting,value
"COc1ccc([C@@H](O)[C@@H](C)Oc2ccc([C@H]3O[C@H](c4ccc(O[C@H](C)[C@H](O)c5ccc6c(c5)OCO6)c(OC)c4)[C@H](C)[C@H]3C)cc2OC)cc1OC [Compound 2, manassantin B]",inhibition at 0.1 µM,HIF-1,44%
same,TGI,HCT-15,>1.00E−4 Molar
same,GI50,HCT-15; Homo sapiens,4.91 µM
same,CC50,HCT-15; [1],> 100 µM
same,Mean Optical Densities,HCT-15; Log10 Concentration −4.0 Molar,0.319
same,Percent Growth,HCT-15; Log10 Concentration −4.0 Molar,26%
same,Mean Optical Densities,HCT-15; Log10 Concentration −5.0 Molar,0.400
same,Percent Growth,HCT-15; Log10 Concentration −5.0 Molar,38%
same,Mean Optical Densities,HCT-15; Log10 Concentration −6.0 Molar,0.660
same,Percent Growth,HCT-15; Log10 Concentration −6.0 Molar,77%
same,Mean Optical Densities,HCT-15; Log10 Concentration −7.0 Molar,0.691
same,Percent Growth,HCT-15; Log10 Concentration −7.0 Molar,82%
same,Mean Optical Densities,HCT-15; Log10 Concentration −8.0 Molar,0.683
same,Percent Growth,HCT-15; Log10 Concentration −8.0 Molar,80%
same,TGI,NCI-H322M,>1.00E−4 Molar
same,GI50,NCI-H322M; Homo sapiens,19.7 µM
same,LC50,NCI-H322M; Homo sapiens,> 100 µM
same,Mean Optical Densities,NCI-H322M; Log10 Concentration −4.0 Molar,1.146
same,Percent Growth,NCI-H322M; Log10 Concentration −4.0 Molar,28%
same,Mean Optical Densities,NCI-H322M; Log10 Concentration −5.0 Molar,1.266
same,Percent Growth,NCI-H322M; Log10 Concentration −5.0 Molar,59%
same,Mean Optical Densities,NCI-H322M; Log10 Concentration −6.0 Molar,1.380
same,Percent Growth,NCI-H322M; Log10 Concentration −6.0 Molar,89%
same,Mean Optical Densities,NCI-H322M; Log10 Concentration −7.0 Molar,1.370
same,Percent Growth,NCI-H322M; Log10 Concentration −7.0 Molar,86%
same,Mean Optical Densities,NCI-H322M; Log10 Concentration −8.0 Molar,1.315
same,Percent Growth,NCI-H322M; Log10 Concentration −8.0 Molar,72%
same,inhibition of the NCI/ADR-RES breast tumor cell line,NCI/ADR-RES,potently inhibits
same,GI50,"NCI/ADR-RES; Homo sapiens, NCI/ADR-RES",0.107 µM
same,CC50,"NCI/ADR-RES; Homo sapiens, NCI/ADR-RES, read-out: LC50 (the source's name)",> 100 µM
same,TGI,NCI/ADR-RES; NCI/ADR-RES,>1.00E−4 Molar
same,Mean Optical Densities,NCI/ADR-RES; [2],0.982
same,Percent Growth,NCI/ADR-RES; [2],5%
same,Mean Optical Densities,NCI/ADR-RES; [3],1.133
same,Percent Growth,NCI/ADR-RES; [3],20%
same,Mean Optical Densities,NCI/ADR-RES; [4],1.389
same,Percent Growth,NCI/ADR-RES; [4],45%
same,Mean Optical Densities,NCI/ADR-RES; [5],1.445
same,Percent Growth,NCI/ADR-RES; [5],50%
same,Mean Optical Densities,NCI/ADR-RES; [6],1.518
same,Percent Growth,NCI/ADR-RES; [6],57%
same,selectivity for tumor cell lines,tumor cell lines,"up to 10,000 fold"
same,TGI,MDA-MB-231/ATCC,4.74E−5 Molar
same,GI50,MDA-MB-231/ATCC; Homo sapiens,0.968 µM
same,CC50,MDA-MB-231/ATCC; [1],> 100 µM
same,Mean Optical Densities,MDA-MB-231/ATCC; Log10 Concentration −4.0 Molar,0.384
same,Percent Growth,MDA-MB-231/ATCC; Log10 Concentration −4.0 Molar,−7%
same,Mean Optical Densities,MDA-MB-231/ATCC; Log10 Concentration −5.0 Molar,0.457
same,Percent Growth,MDA-MB-231/ATCC; Log10 Concentration −5.0 Molar,14%
same,Mean Optical Densities,MDA-MB-231/ATCC; Log10 Concentration −6.0 Molar,0.569
same,Percent Growth,MDA-MB-231/ATCC; Log10 Concentration −6.0 Molar,50%
same,Mean Optical Densities,MDA-MB-231/ATCC; Log10 Concentration −7.0 Molar,0.630
same,Percent Growth,MDA-MB-231/ATCC; Log10 Concentration −7.0 Molar,69%
same,Mean Optical Densities,MDA-MB-231/ATCC; Log10 Concentration −8.0 Molar,0.640
same,Percent Growth,MDA-MB-231/ATCC; Log10 Concentration −8.0 Molar,72%
same,TGI,HL-60(TB),>1.00E−4 Molar
same,GI50,HL-60(TB); Homo sapiens,> 100 µM
same,CC50,HL-60(TB); [1],> 100 µM
same,Mean Optical Densities,HL-60(TB); Log10 Concentration −4.0 Molar,0.426
same,Percent Growth,HL-60(TB); Log10 Concentration −4.0 Molar,58%
same,Mean Optical Densities,HL-60(TB); Log10 Concentration −5.0 Molar,0.491
same,Percent Growth,HL-60(TB); Log10 Concentration −5.0 Molar,76%
same,Mean Optical Densities,HL-60(TB); Log10 Concentration −6.0 Molar,0.555
same,Percent Growth,HL-60(TB); Log10 Concentration −6.0 Molar,93%
same,Mean Optical Densities,HL-60(TB); Log10 Concentration −7.0 Molar,0.543
same,Percent Growth,HL-60(TB); Log10 Concentration −7.0 Molar,90%
same,Mean Optical Densities,HL-60(TB); Log10 Concentration −8.0 Molar,0.469
same,Percent Growth,HL-60(TB); Log10 Concentration −8.0 Molar,70%
same,TGI,786-0,>1.00E−4 Molar
same,GI50,786-0; Homo sapiens,7.74 µM
same,CC50,786-0; [1],> 100 µM
same,Mean Optical Densities,786-0; Log10 Concentration −4.0 Molar,0.806
same,Percent Growth,786-0; Log10 Concentration −4.0 Molar,38%
same,Mean Optical Densities,786-0; Log10 Concentration −5.0 Molar,0.888
same,Percent Growth,786-0; Log10 Concentration −5.0 Molar,46%
same,Mean Optical Densities,786-0; Log10 Concentration −6.0 Molar,1.309
same,Percent Growth,786-0; Log10 Concentration −6.0 Molar,84%
same,Mean Optical Densities,786-0; Log10 Concentration −7.0 Molar,1.361
same,Percent Growth,786-0; Log10 Concentration −7.0 Molar,89%
same,Mean Optical Densities,786-0; Log10 Concentration −8.0 Molar,1.398
same,Percent Growth,786-0; Log10 Concentration −8.0 Molar,92%
same,TGI,SF-539,>1.00E−4 Molar
same,GI50,SF-539; Homo sapiens,6.28 µM
same,CC50,SF-539; [1],> 100 µM
same,Mean Optical Densities,SF-539; Log10 Concentration −4.0 Molar,0.535
same,Percent Growth,SF-539; Log10 Concentration −4.0 Molar,21%
same,Mean Optical Densities,SF-539; Log10 Concentration −5.0 Molar,0.629
same,Percent Growth,SF-539; Log10 Concentration −5.0 Molar,41%
same,Mean Optical Densities,SF-539; Log10 Concentration −6.0 Molar,0.848
same,Percent Growth,SF-539; Log10 Concentration −6.0 Molar,87%
same,Mean Optical Densities,SF-539; Log10 Concentration −7.0 Molar,0.914
same,Percent Growth,SF-539; Log10 Concentration −7.0 Molar,101%
same,Mean Optical Densities,SF-539; Log10 Concentration −8.0 Molar,0.880
same,Percent Growth,SF-539; Log10 Concentration −8.0 Molar,94%

# From US20090137664A1, “SAURURUS CERNUUS COMPOUNDS THAT INHIBIT CELLULAR RESPONSES TO HYPOXIA” (priority 2003, published 2009)
